In patent publication US8293774B2, “Optically active (R)-aryloxypropionic acid amides and herbicidal composition comprising same” (Kyung Nong Corporation, priority 2007, dated 2012):

What was measured:
Assay in all cases: Weed control test, foliage treatment (Test Example 1, Table 7)
[1] = tested on: PANDI (Panium dichotomiflorum Michx, fall panicum); format: in vivo; details: Panicum dichotomiflorum, foliar, read-out: Plant damage (herbicidal activity), visually evaluated, PANDI; for pest or weed control at 25 g/ha: 0.025 kg/ha; for pest or weed control at 100 g/ha: 0.1 kg/ha; for pest or weed control at 200 g/ha: 0.2 kg/ha
Method: (§1) Seeds of rice, wheat, soy bean, barley, corn, common sorgum, barnyard grass, large crabgrass, creek grass, green foxtail and fall panicum were placed in sandy loam in 600 cm^2 pots and covered with soil. After keeping the pots in a greenhouse at 20 to 30° C. allowing growth of the plants to the 3-leaf stage of the barnyard grass, 2,000 l/ha of an emulsion obtained by diluting with water a mixture of 1 part by weight of a test compound, 5 parts by weight of acetone and 1 part by weight of an emulsifying agent (Tween 80, Junsei) was applied to the surface of the foliage of the plants. The plant damage at 10 days and 20 days after the foliage treatment was visually evaluated from the level of 1 to 100% by comparison with the untreated control: […]

[2] = tested on: ECHOG (Echinoch crus-galli Beauv. var. caudata Kitagawa, barnyard grass); format: in vivo; details: Echinochloa crus-galli, foliar, 3-leaf stage, read-out: Plant damage (herbicidal activity), visually evaluated, ECHOG; for pest or weed control at 25 g/ha: 0.025 kg/ha; for pest or weed control at 100 g/ha: 0.1 kg/ha; for pest or weed control at 200 g/ha: 0.2 kg/ha
Method: as §1

[3] = tested on: SETVIR (Setaria viridis (L.) Beauv, green foxtail); format: in vivo; details: Setaria viridis, foliar, read-out: Plant damage (herbicidal activity), visually evaluated, SETVIR; for pest or weed control at 25 g/ha: 0.025 kg/ha; for pest or weed control at 100 g/ha: 0.1 kg/ha; for pest or weed control at 200 g/ha: 0.2 kg/ha
Method: as §1

[4] = tested on: ZEAMX (Zea mays L., corn); format: in vivo; details: Zea mays, foliar, read-out: Plant damage (herbicidal activity), visually evaluated, ZEAMX; for plant injury at 25 g/ha: 0.025 kg/ha; for plant injury at 100 g/ha: 0.1 kg/ha; for plant injury at 200 g/ha: 0.2 kg/ha
Method: as §1

[5] = tested on: ARTHIS (Arthraxon hispidus (Thunb.) Makino, creek grass); format: in vivo; details: Arthraxon hispidus, foliar, read-out: Plant damage (herbicidal activity), visually evaluated, ARTHIS; for pest or weed control at 25 g/ha: 0.025 kg/ha; for pest or weed control at 100 g/ha: 0.1 kg/ha; for pest or weed control at 200 g/ha: 0.2 kg/ha
Method: as §1

[6] = tested on: DIGSA (Digitaria Sanguinalis (L.) SCOP, large crabgrass); format: in vivo; details: Digitaria sanguinalis, foliar, read-out: Plant damage (herbicidal activity), visually evaluated, DIGSA; for pest or weed control at 25 g/ha: 0.025 kg/ha; for pest or weed control at 100 g/ha: 0.1 kg/ha; for pest or weed control at 200 g/ha: 0.2 kg/ha
Method: as §1

[7] = tested on: SORBI (Andropogon sorghum, common sorgum); format: in vivo; details: Sorghum bicolor, foliar, read-out: Plant damage (herbicidal activity), visually evaluated, SORBI; for pest or weed control at 25 g/ha: 0.025 kg/ha; for pest or weed control at 100 g/ha: 0.1 kg/ha; for pest or weed control at 200 g/ha: 0.2 kg/ha
Method: as §1

[8] = tested on: HORVU (Hordeum vulgare L., barley); details: in vivo
Method: as §1

[9] = tested on: ORYSA (Oryza sativa cv. Dongjin, rice); details: in vivo
Method: as §1

[10] = tested on: TRZAW (Tritium aestivum L., wheat); details: in vivo
Method: as §1

[11] = tested on: GLXMA (Glycine max(L.) MERR, soy bean); details: in vivo
Method: as §1

SMILES	pest or weed control at 25 g/ha [1]	pest or weed control at 100 g/ha [1]	pest or weed control at 200 g/ha [1]	pest or weed control at 25 g/ha [2]	pest or weed control at 100 g/ha [2]	pest or weed control at 200 g/ha [2]	pest or weed control at 25 g/ha [3]	pest or weed control at 100 g/ha [3]	pest or weed control at 200 g/ha [3]	plant injury at 25 g/ha [4]	plant injury at 100 g/ha [4]	plant injury at 200 g/ha [4]	pest or weed control at 25 g/ha [5]	pest or weed control at 100 g/ha [5]	pest or weed control at 200 g/ha [5]	pest or weed control at 25 g/ha [6]	pest or weed control at 100 g/ha [6]	pest or weed control at 200 g/ha [6]	pest or weed control at 25 g/ha [7]	pest or weed control at 100 g/ha [7]	other results
C[C@@H](Oc1ccc(OC(F)=Cc2ccccc2)cc1)C(=O)N(C)c1ccccc1F [Example 37, (R)-2-[4-(1-fluoro-2-phenylvinyloxy)phenoxy]propionic acid-N-(2-fluorophenyl)-N-methyl amide]	0%	0%	10%	20%	70%	90%	0%	0%	20%	0%	0%	30%	0%	0%	10%	0%	20%	90%	0%	20%	pest or weed control at 200 g/ha [7]: 20%; Plant damage (herbicidal activity), visually evaluated, HORVU [8]: 0%; Plant damage (herbicidal activity), visually evaluated, ORYSA [9]: 0%; Plant damage (herbicidal activity), visually evaluated, TRZAW [10]: 0%; Plant damage (herbicidal activity), visually evaluated, GLXMA [11]: 0%
C[C@@H](Oc1ccc(Oc2ccc(C#N)cc2F)cc1)C(=O)Nc1nc2ccccc2s1 [Example 19, (R)-2-[4-(4-cyano-2-fluorophenoxy)phenoxy]propionic acid-N-(2-benzothiazolyl)amide]	0%	0%	0%	0%	20%	30%	0%	10%	10%	0%	10%	30%	0%	10%	10%	0%	10%	30%	20%	60%	pest or weed control at 200 g/ha [7]: 70%; Plant damage (herbicidal activity), visually evaluated, HORVU [8]: 0%; Plant damage (herbicidal activity), visually evaluated, ORYSA [9]: 0%; Plant damage (herbicidal activity), visually evaluated, TRZAW [10]: 0%; Plant damage (herbicidal activity), visually evaluated, GLXMA [11]: 0%
Cc1cc(NC(=O)[C@@H](C)Oc2ccc(Oc3ccc(C#N)cc3F)cc2)n(C)n1 [Example 29, (R)-2-[4-(4-cyano-2-fluorophenoxy)phenoxy]propionic acid-N-(1,3-dimethyl-5-pyrazolyl)amide]	0%	0%	10%	20%	70%	90%	0%	0%	20%	0%	5%	30%	0%	0%	10%	0%	20%	90%	0%	20%	pest or weed control at 200 g/ha [7]: 50%; Plant damage (herbicidal activity), visually evaluated, HORVU [8]: 0%; Plant damage (herbicidal activity), visually evaluated, ORYSA [9]: 0%; Plant damage (herbicidal activity), visually evaluated, TRZAW [10]: 0%; Plant damage (herbicidal activity), visually evaluated, GLXMA [11]: 0%
C[C@@H](Oc1ccc(C(F)=C(c2ccccc2)C(F)(F)F)cc1)C(=O)Nc1nc2cc(Cl)ccc2o1 [Example 55, (R)-2-[4-(1,3,3,3-tetrafluoro-2-phenylprop-1-enyl)phenoxy]propionic acid-N-(5-chloro-2-benzoxazolyl)amide]	0%	0%	0%	0%	0%	0%	0%	0%	0%	10%	10%	30%	0%	0%	0%	0%	0%	0%	10%	20%	pest or weed control at 200 g/ha [7]: 35%; Plant damage (herbicidal activity), visually evaluated, HORVU [8]: 0%; Plant damage (herbicidal activity), visually evaluated, ORYSA [9]: 0%; Plant damage (herbicidal activity), visually evaluated, TRZAW [10]: 0%; Plant damage (herbicidal activity), visually evaluated, GLXMA [11]: 0%
Cc1ccc2nc(N(C)C(=O)[C@@H](C)Oc3ccc(Oc4ccc(C#N)cc4F)cc3)sc2c1 [Example 26, (R)-2-[4-(4-cyano-2-fluorophenoxy)phenoxy]propionic acid-N-(6-methyl-2-benzothiazolyl)-N-methyl amide]	0%	0%	0%	0%	0%	0%	0%	0%	0%	10%	10%	30%	0%	0%	0%	0%	0%	0%	10%	20%	pest or weed control at 200 g/ha [7]: 35%; Plant damage (herbicidal activity), visually evaluated, HORVU [8]: 0%; Plant damage (herbicidal activity), visually evaluated, ORYSA [9]: 0%; Plant damage (herbicidal activity), visually evaluated, TRZAW [10]: 0%; Plant damage (herbicidal activity), visually evaluated, GLXMA [11]: 0%
C[C@@H](Oc1ccc(C(F)=C(c2ccccc2)C(F)(F)F)cc1)C(=O)Nc1ccccc1F [Example 42, (R)-2-[4-(1,3,3,3-tetrafluoro-2-phenylprop-1-enyl)phenoxy]propionic acid-N-(2-fluorophenyl)amide]	0%	0%	70%	0%	20%	20%	0%	0%	70%	0%	30%	90%	0%	0%	50%	0%	0%	20%	0%	0%	pest or weed control at 200 g/ha [7]: 0%; Plant damage (herbicidal activity), visually evaluated, HORVU [8]: 0%; Plant damage (herbicidal activity), visually evaluated, ORYSA [9]: 0%; Plant damage (herbicidal activity), visually evaluated, TRZAW [10]: 0%; Plant damage (herbicidal activity), visually evaluated, GLXMA [11]: 0%
